In ChEMBL document CHEMBL1201862, “PubChem BioAssay data set” (2004):
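Briefly, cells in 96-well plates were exposed to five compound concentrations for 48 h, and endpoints were estimated by linear interpolation. Here, GI50 denotes the concentration required for 50% inhibition of growth.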 Calls of active or inactive are those of the source. Cut-off read from the data, not from the text of the source: active = GI50 up to about 1.1 µM and inactive = higher.

Key:
Assay in all cases: NCI tumour cell line growth inhibition, 48 h
TK-10 = tested on: TK-10
SR = tested on: SR
CCRF-CEM = tested on: CCRF-CEM
HOP-62 = tested on: HOP-62
SW-620 = tested on: SW-620
SF-539 = tested on: SF-539
NCI-H522 = tested on: NCI-H522
OVCAR-8 = tested on: OVCAR-8
LOX IMVI = tested on: LOX IMVI
HT-29 = tested on: HT-29
HCT-116 = tested on: HCT-116
SK-MEL-28 = tested on: SK-MEL-28
SF-295 = tested on: SF-295
IGROV-1 = tested on: IGROV-1
SNB-75 = tested on: SNB-75
COLO 205 = tested on: COLO 205
EKVX = tested on: EKVX
CAKI-1 = tested on: CAKI-1

Compound | GI50 (TK-10) | GI50 (SR) | GI50 (CCRF-CEM) | GI50 (HOP-62) | GI50 (SW-620) | GI50 (SF-539) | GI50 (NCI-H522) | GI50 (OVCAR-8) | GI50 (LOX IMVI) | GI50 (HT-29) | GI50 (HCT-116) | GI50 (SK-MEL-28) | GI50 (SF-295) | GI50 (IGROV-1) | GI50 (SNB-75) | GI50 (COLO 205) | GI50 (EKVX) | GI50 (CAKI-1)
Cc1cnc2c(c1)C(=O)C1=C(OC(C)(C)CC1O)C2=O (stereo unspecified) | 18.5 µM (inactive) | 7.89 µM (inactive) | 13.2 µM (inactive) | 19.4 µM (inactive) | 14.7 µM (inactive) | 16.4 µM (inactive) | 15.8 µM (inactive) | 15 µM (inactive) | 10.5 µM (inactive) | 20.6 µM (inactive) | 14.4 µM (inactive) | 17.3 µM (inactive) | 13.3 µM (inactive) | 15.2 µM (inactive) | 14.4 µM (inactive) | 16.7 µM (inactive) | 20.7 µM (inactive) | 
CCN/C(=N\Nc1ccc([N+](=O)[O-])cc1)P(=O)(OC(C)C)OC(C)C | > 100 µM (inactive) | > 100 µM (inactive) | > 100 µM (inactive) | 95.9 µM (inactive) | > 100 µM (inactive) | > 100 µM (inactive) | > 100 µM (inactive) | > 100 µM (inactive) | > 100 µM (inactive) |  | > 100 µM (inactive) | 99.8 µM (inactive) |  |  | 49.9 µM (inactive) | > 100 µM (inactive) | > 100 µM (inactive) | > 100 µM (inactive)
CSc1ccc(C2OC(=O)c3ccccc32)c2ccccc12 (stereo unspecified) |  | 97.1 µM (inactive) | 54.8 µM (inactive) | > 100 µM (inactive) | > 100 µM (inactive) | > 100 µM (inactive) | 51.8 µM (inactive) | > 100 µM (inactive) | 88.3 µM (inactive) | 52.5 µM (inactive) | 87.5 µM (inactive) | > 100 µM (inactive) | > 100 µM (inactive) | 98.9 µM (inactive) | 14.2 µM (inactive) | > 100 µM (inactive) | > 100 µM (inactive) | 80.7 µM (inactive)
COC(=O)C1Cc2c([nH]c3ccccc23)C(c2ccccc2O)N1 (stereo unspecified) | 52 µM (inactive) | > 100 µM (inactive) | 45.4 µM (inactive) |  | > 100 µM (inactive) | 34.1 µM (inactive) | 32.4 µM (inactive) | 68.1 µM (inactive) | 60.8 µM (inactive) | 44.9 µM (inactive) | 66.8 µM (inactive) | > 100 µM (inactive) | 78.5 µM (inactive) | 33.8 µM (inactive) | 88.1 µM (inactive) | 35.3 µM (inactive) | > 100 µM (inactive) | 98.6 µM (inactive)
CC(C)(C)c1cc(C(=O)O)c2c(c1)C(=O)OC2(c1ccccc1)c1ccccc1C(=O)O (stereo unspecified) | > 100 µM (inactive) | > 100 µM (inactive) | > 100 µM (inactive) | > 100 µM (inactive) | > 100 µM (inactive) | > 100 µM (inactive) | 0.206 µM (active) | > 100 µM (inactive) | > 100 µM (inactive) | > 100 µM (inactive) | > 100 µM (inactive) | > 100 µM (inactive) | > 100 µM (inactive) |  | 90.4 µM (inactive) | 41.1 µM (inactive) | > 100 µM (inactive) | > 100 µM (inactive)
C=C(C)[C@H]1CC[C@@]2(C)C(C1)[C@H](C)CC[C@@H]2O (stereo partly specified) | > 100 µM (inactive) | > 100 µM (inactive) | > 100 µM (inactive) | > 100 µM (inactive) | > 100 µM (inactive) | > 100 µM (inactive) | 47 µM (inactive) | > 100 µM (inactive) | > 100 µM (inactive) | 70.5 µM (inactive) | > 100 µM (inactive) | > 100 µM (inactive) | > 100 µM (inactive) | > 100 µM (inactive) | > 100 µM (inactive) | > 100 µM (inactive) | > 100 µM (inactive) | > 100 µM (inactive)
